Source: patent US11485987B2, “Methods for inducing bioorthogonal reactivity” (University of Delaware, priority 2015, dated 2022)

Assays:
ferricytochrome C = assay: Background oxidation of DHTZ by ferricytochrome C; format: biochemical; settings: ferricytochrome c two orders of magnitude higher concentration than APEX2
Description: Superoxide has been reported to reduce ferricytochrome C Fe(III) to ferrocytochrome C Fe(II) and O2. Superoxide production during oxidation of DHTZ by APEX2 (SEQ ID NO:1) has been detected by following the reduction of ferricytochrome C Fe(III) to ferrocytochrome C Fe(II) (λmax=550 nm) by UV-Vis spectrometry (FIG. 11C-D). Two wavelengths, 325 nm for tetrazine formation and 550 nm for ferrocytochrome c formation, were followed where reduction of ferricytochrome C by the superoxide byproduct formed during DHTZ oxidation was observed. Addition of SOD stopped the formation of ferrocytochrome C, thus confirming that superoxide is formed during oxidation of DHTZ by APEX2 (SEQ ID NO:1). A stoichiometric background oxidation of DHTZ by ferricytochrome C was observed where the rate of the oxidation of 15 by ferricytochrome c was 2× slower than APEX2 (SEQ ID NO:1) at ferricytochrome c concentrations two orders of magnitude higher than APEX2 (SEQ ID NO:1). While oxidation of DHTZ by cytochrome C is not catalytic or feasible for intracellular applications, it does confirm that DHTZ undergoes two successive one-electron oxidations as cytochrome C cannot oxidize substrates by two-electron oxidations.
15 (10 μM) from stock solution was added to PBS containing 100 μM EDTA. Ferricytochrome C (60 μM) was dosed in after 10 seconds followed by addition of APEX2 (SEQ ID NO:1) ([…]). […]

[1] = molecular target: T1, horseradish peroxidase (HRP) (Armoracia rusticana, UniProt P00433); assay: Horseradish peroxidase (HRP) catalyzed oxidation of DHTz to tetrazine; format: biochemical; settings: HRP 15 nM; for Rate of HRP Oxidation of 3a: first 10 seconds
T1 sequence (P00433 31-338): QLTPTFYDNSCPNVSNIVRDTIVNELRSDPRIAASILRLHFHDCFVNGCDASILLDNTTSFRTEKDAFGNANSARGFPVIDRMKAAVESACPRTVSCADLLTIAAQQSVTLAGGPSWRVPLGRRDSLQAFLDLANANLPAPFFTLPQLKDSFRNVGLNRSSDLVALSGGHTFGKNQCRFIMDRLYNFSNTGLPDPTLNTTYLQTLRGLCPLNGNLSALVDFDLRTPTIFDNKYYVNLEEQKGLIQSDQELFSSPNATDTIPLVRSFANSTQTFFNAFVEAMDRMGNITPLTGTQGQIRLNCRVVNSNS
Method: (§1) Upon addition of horseradish peroxidase (15 nM) the UV-vis spectrum was monitored every 10 seconds. With 50% conversion after 100 seconds, complete conversion of 3a to 4a is observed after 600 seconds, as evidenced by the decrease in the absorption at 292 nm and increase at 325 nm with an isosbestic point at 303 nm. Similar spectral changes are observed when 3a is electrochemically oxidized to 4a in aqueous solution, or when the oxidation of 3a to 4a is photocatalyzed by methylene blue. […] Methylene blue was considered a particularly attractive sensitizer due to its clinical relevance, low molecular weight, low toxicity, high solubility, and an absorption spectrum (λmax 665 nm) that extends to the near IR. Further, methylene blue has previously been explored for applications in photodynamic therapy based on oxidation of indole-3-acetic acid. Rose bengal (λmax 550 nm), used in a range of biomedical applications, was also identified as an excellent sensitizer. […] Methylene blue (4 μM) also catalyzed the conversion of 3a to 4a in the presence of ambient light, with 47% conversion noted after 2 h. […] The mechanism of photooxidation more likely involves electron transfer and is the subject of ongoing study.
As a complement to these photocatalyzed reactions, the inventors observed that HRP can efficiently catalyze the oxidation of 3a in the dark at low enzyme concentration (15 nM) (FIG. 4). While HRP typically requires H2O2 as the terminal oxidant, the addition of HRP to a peroxide-free solution of 3a (30 μM) in PBS led to the rapid formation of 4a (FIG. 4, panel B). […] Neither cytochrome c nor hemoglobin were effective catalysts of DHTz oxidation, with only slow conversion of 3a to 4a even with heme concentrations that were nearly 3 orders of magnitude higher than that used with HRP.
Solutions (1 mL) containing 3a (30 μm) in PBS buffer were prepared in a cuvette from stock solutions. Oxidation of 3a to 4a was monitored by recording absorbance at 325 nm every 10 seconds while either hydrogen peroxide (2 mM), HRP (15 nM) or both were added (FIG. 4, panel B). For the superoxide dismutase experiment, HRP (15 nM) was added followed by SOD (770 nM) 40 seconds later (FIG. 4, panel C). For the kinetics experiments, solutions (1 mL) containing 3a in PBS buffer with EDTA (2 mM) were prepared in the following concentrations of 3a: 9, 17, 34, 50, 83, 150 and 200 μM. The oxidation rate was determined by observing the conversion of 3a to 4a in the first 10 seconds after mixing in HRP (15 nM) and subtracting the background oxidation prior to the addition of HRP.

[2] = Methylene blue catalyzed photooxidation of DHTz to tetrazine
Method: as §1, with “Methylene blue (4 μM) also catalyzed the conversion of 3a to 4a in the presence of ambient light, with 47% conversion noted after 2 h.” left out
Thus, a PBS solution of 3a was sparged with 98% nitrogen and 2% air, such that the final O2 concentration was 5 μM.
Oxidation of 3a to 4a was monitored by recording absorbance at 325 nm every 30 seconds. Cuvettes for these experiments were washed with EDTA/PBS as described in the General Considerations (section 2.1). […]

SMILES	rate of oxidation by ferricytochrome c slower than APEX2 (ferricytochrome C) [×]	time to complete conversion of 3a to 4a [1] [s]	conversion of 3a to 4a ([1]; after 100 seconds) [%]	Rate of HRP Oxidation of 3a ([1]; [3a] 17 μM) [M/s]	Rate of HRP Oxidation of 3a ([1]; [3a] 34 μM) [M/s]	Rate of HRP Oxidation of 3a ([1]; [3a] 50 μM) [M/s]	Rate of HRP Oxidation of 3a ([1]; [3a] 83 μM) [M/s]	Rate of HRP Oxidation of 3a ([1]; [3a] 150 μM) [M/s]	Rate of HRP Oxidation of 3a ([1]; [3a] 200 μM) [M/s]	time to quantitative conversion to tetrazine 4a ([2]; 3a 21 μM, methylene blue 4 μM, 660 nm LED 9.1 mW/cm^2, pH 7.4 PBS) [s]	time to complete conversion of 3a to 4a ([2]; hypoxia model, O2 5 μM, methylene blue 7 μM, 660 nm) [min]	conversion of 3a to 4a ([2]; methylene blue 4 μM, ambient light, 2 h) [%]
O=C(O)CCCC(=O)Nc1ccc(C2=NNC(c3ccccn3)=NN2)nc1 [compound 15]	2	–	–	–	–	–	–	–	–	–	–	–
O=C(O)CCC(=O)Nc1ccc(C2=NNC(c3ccccn3)=NN2)nc1 [3a, 4-oxo-4-((6-(6-(pyridin-2-yl)-1,4-dihydro-1,2,4,5-tetrazin-3-yl)pyridin-3-yl)amino)butanoic Acid]	–	600	50	5.6e-08	8.9e-08	1.2e-07	2.1e-07	2.5e-07	2.6e-07	≤ 200	≤ 30	47
